As a reminder, the IC50 is the concentration needed to halve the response being measured.

Drawing on patent publication US8951999B2, “Compounds” (Orexo AB, priority 2009, dated 2015), this text covers IC50 for 42 molecules.

In the assay the target is T1, recombinant human mPGES-1 (Homo sapiens, UniProt O14684).
T1 sequence (O14684 1-152): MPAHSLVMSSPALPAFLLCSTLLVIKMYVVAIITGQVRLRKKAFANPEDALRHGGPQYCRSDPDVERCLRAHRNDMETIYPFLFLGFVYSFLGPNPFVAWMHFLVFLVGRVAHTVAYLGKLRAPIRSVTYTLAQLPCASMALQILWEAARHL
The experiment in a line: Assay B: mPGES-1 enzyme assay (modified). To be noted: biological assay B (all other compounds); PGH2 final conc. 2 μM, HTRF; read-out: mPGES-1 inhibitory effect IC50. In kind it is biochemical. As to the method:
Assay B: mPGES-1 Enzyme Assay (Modified)
The aim of this assay is to determine the affinity of a test compound for the mPGES-1 enzyme.
47 μl of recombinant human mPGES-1 (˜0.5 μg protein/well) containing microsomal suspension in a buffer containing GSH, (2.5 mmol/L L-Glutathione reduced, dissolved in 0.1 mol/L Phosphat Buffer pH 7.4) is dispensed in a 384-well plate and thereafter 1 μl of the test compound(s) is/are added and incubated for 25 minutes at room temperature. The enzyme reaction is started by the addition of 2 ul PGH2 (final conc. 2 μM) dissolved in water-free Diglyme. After 60 seconds the reaction is terminated by addition of a stop solution containing FeCl2 (10 μL 0.074 mol/l FeCl2). The samples are diluted between 1:25 in PBS (Phosphate Buffered Saline). 10 μl of the diluted samples are transferred to 384-well low volume plate. In order to quantify the amount of PGE2 that has been formed, a homogenous time resolved fluorescent (HTRF) detecting of PGE2 has been performed using a commercially available kit from Cisbio according to the manufactures recommendation. This HTRF-based assay has been described in detail (see: Goedken et al., J Biomol Screen, 2008, 13(7), 619-625). Briefly, the diluted samples are mixed with […] PGE2-d2 conjugate and 5 μl anti-PGE2 cryptate conjugate. After an incubation period of the plates over night, the fluorescence is measured by the use of an appropriate microplate reader.
The fluorescence of Europium cryptate (maxex=307 nm, maxem=620 nm) and d2-PGE2 (maxex=620 nm, maxem=665 nm) are measured.
The extent of the specific HTRF is measured as a ratio of the emission intensity at 665 nm vs. that at 620 nm at an excitation pulse of 320 nm. The quantification plate contains also wells with different concentrations of PGE2 as calibration curve for the calculation of the PGE2 concentrations from the HTRF ratio values.
From all mPGES enzyme assay the background is subtracted and the IC50 is calculated over a nonlinear regression with conventional software.
For orientation: TR-FRET usually uses a lanthanide donor and a delayed reading to cut background.

For the molecule `CC(C)(C(=O)NCc1ccc(Cl)c(C(=O)Nc2ccc(OCC(F)F)c(C(=O)NCCC(F)(F)F)c2)c1Cl)C(F)(F)F` [Example 146], the IC50 was determined as 14 nM.

With `CC(C)(C(=O)NCc1ccc(Cl)c(C(=O)Nc2ccc(OCC(F)F)c(C(=O)NC3CCC3)c2)c1)C(F)(F)F` [Example 122], the IC50 was 7 nM.

For `CC(C)(C(=O)NCc1ccc(Cl)c(C(=O)Nc2ccc(OCC(F)F)c(C(=O)Nc3ccc(Br)c(Cl)c3)c2)c1)C(F)(F)F` [Example 105], the IC50 was 5 nM.

Turning to `CC(C)(C(=O)NCc1ccc(Cl)c(C(=O)Nc2ccc(OCC(F)F)c(C(=O)Nc3ccc(OC(F)(F)F)c(Cl)c3)c2)c1)C(F)(F)F` [Example 130], the IC50 stood at 4 nM.

Consider `CC1(C)CC1CNC(=O)c1cc(NC(=O)c2cc(CNC(=O)C(C)(C)C(F)(F)F)ccc2Cl)ccc1OCC(F)F` (stereo not drawn) [Example 107], for which the IC50 is 5 nM.

For `CNC(C)(C)C(=O)NCc1ccc(Cl)c(C(=O)Nc2ccc(OCC(F)F)c(C(=O)Nc3ccc(Br)cc3)c2)c1` [Example 176], the IC50 was found to be 50 nM.

With `CC1(NC(=O)c2cc(NC(=O)c3c(Cl)ccc(CNC(=O)C(C)(C)C(F)(F)F)c3Cl)ccc2OCC(F)F)CCOCC1` [Example 155], the IC50 came to 150 nM.

Consider `CC(C)(C)C(=O)NCc1ccc(Cl)c(C(=O)Nc2ccc(N3CCC(C(F)(F)F)CC3)c(C(=O)N[C@H]3CC[C@H](C(F)(F)F)CC3)c2)c1` [Example 58, N-[4-(4-Trifluoromethyl-piperidin-1-yl)-3-(trans-4-trifluoromethylcyclohexyl)aminocarbonyl-phenyl]-2-chloro-5-(tert-butylcarbonylamino)methyl-benzamide], for which the 50% inhibitory concentration (IC50) is 3 nM.

`CC(C)(C)C(=O)NCc1ccc(Cl)c(C(=O)Nc2ccc(N3CCC(C(F)(F)F)CC3)c(C(=O)NCC3CC3)c2)c1` [Example 63]: the IC50 was determined as 5 nM.

For the molecule `CC(C)(C(=O)NCc1ccc(Cl)c(C(=O)Nc2ccc(OCC(F)F)c(C(=O)Nc3ccc(Cl)c(F)c3)c2)c1)C(F)(F)F` [Example 108], the half-maximal inhibitory concentration (IC50) came out at 5 nM.

Regarding `CC(C)(C(=O)NCc1ccc(Cl)c(C(=O)Nc2ccc(OCC(F)F)c(C(=O)Nc3ccc(Cl)c(C(F)(F)F)c3)c2)c1)C(F)(F)F` [Example 126], the IC50 was 4 nM.

Regarding `Cn1cccc1C(=O)NCc1ccc(Cl)c(C(=O)Nc2ccc(OCC(F)F)c(C(=O)Nc3ccc(Br)cc3)c2)c1` [Example 167], the IC50 turned out to be 47 nM.

Regarding `CC(C)(C(=O)NCc1ccc(Cl)c(C(=O)Nc2ccc(OCC(F)F)c(C(=O)Nc3ccccc3Cl)c2)c1)C(F)(F)F` [Example 139], the IC50 is 6 nM.

Take `CC(C)(C(=O)NCc1ccc(Cl)c(C(=O)Nc2ccc(OCC(F)F)c(C(=O)NCCC3CC3)c2)c1)C(F)(F)F` [Example 143]: the IC50 came out at 6 nM.

As to `CC(C)(C(=O)NCc1ccc(Cl)c(C(=O)Nc2ccc(OCC(F)F)c(C(=O)NCc3ccc(C(F)(F)F)cc3)c2)c1)C(F)(F)F` [Example 104], the concentration for half-maximal inhibition (IC50) is 10 nM.

Take `CC(C)(C)C(=O)NCc1ccc(C(F)(F)F)c(C(=O)Nc2ccc(OCC(F)F)c(C(=O)Nc3ccc(Br)cc3)c2)c1` [Example 42, N-[4-(2,2-Difluoroethyl)oxy-3-(4-bromophenyl)aminocarbonyl-phenyl]-2-trifluormethyl-5-(tert-butylcarbonylamino)methyl-benzamide]: the IC50 was 3 nM.

Regarding `CC(C)(C(=O)NCc1ccc(Cl)c(C(=O)Nc2ccc(OCC(F)F)c(C(=O)Nc3ncc(Cl)s3)c2)c1)C(F)(F)F` [Example 83], the IC50 is 7 nM.

Turning to `CC(C)(C)C(=O)NCc1ccc(Cl)c(C(=O)Nc2cnc(OCC(F)F)c(C(=O)Nc3cc(F)cc(Cl)c3)c2)c1Cl` [Example 75, N-[2-(2,2-Difluoroethoxy)-3-(3-chloro-5-fluorophenyl)aminocarbonyl-pyridin-5-yl]-2,6-dichloro-5-(tert-butylcarbonylamino)methyl-benzamide], the IC50 worked out at 6 nM.

Take `Cc1ccc(Cl)cc1NC(=O)c1cc(NC(=O)c2cc(CNC(=O)C(C)(C)C(F)(F)F)ccc2Cl)ccc1OCC(F)F` [Example 86]: the IC50 is 5 nM.

With `CC(C)(C(=O)NCc1ccc(Cl)c(C(=O)Nc2ccc(OCC(F)F)c(C(=O)NCC3CCCCC3)c2)c1)C(F)(F)F` [Example 129], the IC50 was found to be 5 nM.

In the case of `CC(C)(C(=O)NCc1ccc(Cl)c(C(=O)Nc2ccc(OCC(F)F)c(C(=O)Nc3ccc(Br)cc3)c2)c1)C(F)(F)F` [Example 81], the half-maximal inhibitory concentration (IC50) was 2 nM.

Take `NC(C(=O)NCc1ccc(Cl)c(C(=O)Nc2ccc(OCC(F)F)c(C(=O)Nc3ccc(Br)cc3)c2)c1)C(F)(F)F` (stereo not drawn) [Example 174]: the 50% inhibitory concentration (IC50) came out at 8 nM.

With `CC(C)(C)C1CCC(NC(=O)c2cc(NC(=O)c3cc(CNC(=O)C(C)(C)C(F)(F)F)ccc3Cl)ccc2OCC(F)F)CC1` (stereo not drawn) [Example 87], the IC50 came out at 5 nM.

With `CC(C)(C(=O)NCc1ccc(Cl)c(C(=O)Nc2ccc(OCC(F)F)c(C(=O)Nc3ccc(F)c(Cl)c3)c2)c1)C(F)(F)F` [Example 128], the IC50 is 5 nM.

Consider `CC(C)(C(=O)NCc1ccc(Cl)c(C(=O)Nc2ccc(OCC(F)F)c(C(=O)NCC(F)(F)C(F)(F)F)c2)c1)C(F)(F)F` [Example 114], for which the IC50 is 10 nM.

For the molecule `Cc1ccc(CNC(=O)C(C)(C)C)c(Cl)c1C(=O)Nc1ccc(OCC(F)F)c(C(=O)Nc2ccc(Br)cc2)c1` [Example 52, N-[4-(2,2-Difluoroethyl)oxy-3-(4-bromophenyl)aminocarbonyl-phenyl]-2-chloro-6-methyl-3-(tert-butylcarbonylamino)methyl-benzamide], the IC50 stood at 4 nM.

`CC(C)(C(=O)NCc1ccc(Cl)c(C(=O)Nc2ccc(OCC(F)F)c(C(=O)Nc3cccc(F)c3)c2)c1)C(F)(F)F` [Example 119]: the concentration for half-maximal inhibition (IC50) is 5 nM.

Regarding `CC(C)(C(=O)NCc1ccc(Cl)c(C(=O)Nc2ccc(OCC(F)F)c(C(=O)Nc3c(F)ccc(F)c3F)c2)c1F)C(F)(F)F` [Example 79], the IC50 stood at 5 nM.

On to `COc1cc(Cl)ccc1NC(=O)c1cc(NC(=O)c2cc(CNC(=O)C(C)(C)C(F)(F)F)ccc2Cl)ccc1OCC(F)F` [Example 91], for which the IC50 was found to be 6 nM.

With `CC(C)(C(=O)NCc1ccc(Cl)c(C(=O)Nc2ccc(OCC(F)F)c(C(=O)NC3CC(F)(F)C3)c2)c1Cl)C(F)(F)F` [Example 154], the IC50 stood at 9 nM.

`CC(C)(C(=O)NCc1ccc(Cl)c(C(=O)Nc2ccc(OCC(F)F)c(C(=O)Nc3ccc(F)cc3Cl)c2)c1)C(F)(F)F` [Example 116]: the IC50 is 6 nM.

On to `CC(C)(C(=O)NCc1ccc(Cl)c(C(=O)Nc2ccc(OCC(F)F)c(C(=O)NC3CCCC3)c2)c1)C(F)(F)F` [Example 111], for which the IC50 came to 7 nM.

As for `CC(C)(C(=O)NCc1ccc(Cl)c(C(=O)Nc2ccc(OCC(F)F)c(C(=O)NC3CCC(C(F)F)CC3)c2)c1)C(F)(F)F` (stereo not drawn) [Example 142], the half-maximal inhibitory concentration (IC50) was determined as 6 nM.

Turning to `CC(C)(C(=O)NCc1ccc(Cl)c(C(=O)Nc2ccc(OCC(F)F)c(C(=O)NC3CCC(F)(F)CC3)c2)c1Cl)C(F)(F)F` [Example 157], the half-maximal inhibitory concentration (IC50) was 22 nM.

In the case of `Cc1c(CNC(=O)C(C)(C)C)ccc(Cl)c1C(=O)Nc1ccc(OCC(F)F)c(C(=O)Nc2ccc(Br)cc2)c1` [Example 51, N-[4-(2,2-Difluoroethyl)oxy-3-(4-bromophenyl)aminocarbonyl-phenyl]-6-chloro-2-methyl-3-(tert-butylcarbonylamino)methyl-benzamide], the half-inhibitory concentration (IC50) was 5 nM.

For the molecule `CC(C)(C(=O)NCc1ccc(Cl)c(C(=O)Nc2ccc(OCC(F)F)c(C(=O)Nc3cc(C(F)(F)F)ccn3)c2)c1)C(F)(F)F` [Example 109], the IC50 stood at 13 nM.

As for `CC(C)(C(=O)NCc1ccc(Cl)c(C(=O)Nc2ccc(OCC(F)F)c(C(=O)NCCCC(F)(F)F)c2)c1)C(F)(F)F` [Example 121], the half-inhibitory concentration (IC50) was found to be 11 nM.

For `CC(C)(C(=O)NCc1ccc(Cl)c(C(=O)Nc2ccc(OCC(F)F)c(C(=O)NC3CCC4(CC3)CC4)c2)c1)C(F)(F)F` [Example 136], the IC50 was 7 nM.

In the case of `CC(C)(C)C(=O)NCc1ccc(Cl)c(C(=O)Nc2ccc(N3CCC(F)(F)CC3)c(C(=O)Nc3ccc(Br)cc3)c2)c1Cl` [Example 181], the IC50 came out at 2 nM.

With `CC(C)(C(=O)NCc1ccc(Cl)c(C(=O)Nc2ccc(OCC(F)F)c(C(=O)NC3CCC(C(F)F)CC3)c2)c1Cl)C(F)(F)F` (stereo not drawn) [Example 149], the half-maximal inhibitory concentration (IC50) is 4 nM.

`CC(C)(O)C(=O)NCc1ccc(Cl)c(C(=O)Nc2ccc(OCC(F)F)c(C(=O)Nc3ccc(Br)cc3)c2)c1` [Example 172]: the IC50 turned out to be 6 nM.

Regarding `CC(C)(C(=O)NCc1ccc(Cl)c(C(=O)Nc2ccc(OCC(F)F)c(C(=O)Nc3cc(Cl)c4cc[nH]c4c3)c2)c1)C(F)(F)F` [Example 144], the IC50 worked out at 7 nM.
